{
  "source": "patent US20070134261A1",
  "about": "“Effectors of innate immunity” (priority 2001, published 2007)",
  "tested_on": "human bronchial epithelial cells (16HBEo14)",
  "test": "Induction of IL-8 in HBE cells",
  "assay_type": "cell-based",
  "conditions": "for IL-8: 8 h",
  "method": "The murine macrophage cell line RAW 264.7, THP-1 cells (human monocytes), a human epithelial cell line (A549), human bronchial epithelial cells (16HBEo14), and whole human blood were used. HBE cells were grown in MEM with Earle's. THP-1 cells were grown and maintained in RPMI 1640 medium. The RAW and A549 cell lines were maintained in DMEM supplemented with 10% fetal calf serum. […] DMEM was aspirated from cells grown overnight and replaced with fresh medium. After incubation of the cells with peptide, the release of chemokines into the culture supernatant was determined by ELISA (R&D Systems, Minneapolis, Minn.).",
  "data": [
    {"compound": "CC[C@H](C)[C@H](N)C(=O)N[C@@H](CC(C)C)C(=O)N1CCC[C@H]1C(=O)N[C@@H](Cc1c[nH]c2ccccc12)C(=O)N[C@@H](CCCCN)C(=O)N[C@@H](Cc1c[nH]c2ccccc12)C(=O)N1CCC[C@H]1C(=O)N[C@@H](Cc1c[nH]c2ccccc12)C(=O)N[C@@H](Cc1c[nH]c2ccccc12)C(=O)N1CCC[C@H]1C(=O)N[C@@H](Cc1c[nH]c2ccccc12)C(=O)N[C@@H](CCCNC(=N)N)C(=O)N[C@@H](CCCNC(=N)N)C(N)=O", "note": "[SEQ ID NO: 2]", "values": [
      {"measurement": "induction of IL-8", "value": "significantly induced IL-8"},
      {"measurement": "IL-8", "setting": "peptide 0.1 μg/ml", "value": "670 ± 155", "unit": "pg/mL"},
      {"measurement": "IL-8", "setting": "peptide 1 μg/ml", "value": "712 ± 205", "unit": "pg/mL"},
      {"measurement": "IL-8", "setting": "peptide 10 μg/ml", "value": "941 ± 15", "unit": "pg/mL"},
      {"measurement": "IL-8", "setting": "peptide 50 μg/ml", "value": "1490 ± 715", "unit": "pg/mL"}
    ]}
  ]
}
